This note sets out measurements from US7820649B2, “Quinazolinone and isoquinolinone acetamide derivatives” (N.V. Organon, priority 2006, dated 2010).

One test addresses T1, human V3 receptor (Homo sapiens, UniProt P47901).
T1 construct: expressed in transfected cells
T1 sequence (P47901 1-424): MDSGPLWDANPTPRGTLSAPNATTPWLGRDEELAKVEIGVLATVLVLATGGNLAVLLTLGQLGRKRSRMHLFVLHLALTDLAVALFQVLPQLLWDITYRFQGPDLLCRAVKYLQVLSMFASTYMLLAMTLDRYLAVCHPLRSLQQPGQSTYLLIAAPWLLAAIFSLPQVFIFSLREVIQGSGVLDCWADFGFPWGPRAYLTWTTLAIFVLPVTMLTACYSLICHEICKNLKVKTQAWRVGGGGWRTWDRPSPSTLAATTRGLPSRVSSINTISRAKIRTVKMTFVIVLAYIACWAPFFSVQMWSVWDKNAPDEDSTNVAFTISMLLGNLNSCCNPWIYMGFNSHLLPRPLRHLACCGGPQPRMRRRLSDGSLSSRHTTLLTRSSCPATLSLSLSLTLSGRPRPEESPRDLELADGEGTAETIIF
Kind of test: [3H]AVP binding to CHO cells stably expressing the human V3 receptor. The note with it: [3H]AVP 2.5x10^-9 mol/L. The procedure: Chinese Hamster Ovary (CHO) cells stably expressing the human V3 receptor were incubated to equilibrium with the test compound (at a final assay concentration of 10^−10 mol.L^−1 to 10^−5 mol.L^−1) and [^3H]AVP (at a final assay concentration of 2.5×10^−9 mol.L^−1). […] After washing with ice-cold phosphate buffered saline (PBS), scintillation fluid was added and the plates counted on a Topcount NXT apparatus.
A sigmoidal dose response curve (non-linear regression, variable slope) was plotted as concentration of test compound (mol.L^−1) against percentage specific binding of [^3H]AVP and a Ki value was calculated. Each determination was carried out in triplicate and repeated on at least 3 separate occasions

Another test concerns the target T2, V3 receptor (Rattus norvegicus, UniProt P48974).
T2 construct: Anterior pituitary corticotrophs were prepared from adult female Sprague-Dawley rats; endogenous in cells; host or cells: primary anterior pituitary corticotrophs from adult female Sprague-Dawley rats
T2 sequence (P48974 1-425): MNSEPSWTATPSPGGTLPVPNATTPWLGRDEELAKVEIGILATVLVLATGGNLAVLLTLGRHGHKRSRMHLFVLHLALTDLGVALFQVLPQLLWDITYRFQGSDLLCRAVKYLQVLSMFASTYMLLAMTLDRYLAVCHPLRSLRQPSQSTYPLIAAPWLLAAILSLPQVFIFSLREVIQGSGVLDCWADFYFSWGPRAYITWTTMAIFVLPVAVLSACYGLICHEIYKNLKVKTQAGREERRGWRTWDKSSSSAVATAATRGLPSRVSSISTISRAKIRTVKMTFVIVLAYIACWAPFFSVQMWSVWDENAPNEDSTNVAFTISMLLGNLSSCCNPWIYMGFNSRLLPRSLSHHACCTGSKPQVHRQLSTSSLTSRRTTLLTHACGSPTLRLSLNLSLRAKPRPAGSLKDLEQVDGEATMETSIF
Kind of test: Block of AVP-induced ACTH release from isolated rat anterior pituitary corticotrophs. It is filed as cell-based. As to conditions: ACTH release after 3x10^-9 mol/L AVP for 120 minutes, ELISA; read-out: V3 receptor antagonism in isolated rat anterior pituitary cells. The procedure: The ability of compounds of the invention to act as V3 antagonists in a physiologically relevant system was determined by measuring their ability to block the release of adrenocorticotropic hormone (ACTH) from anterior pituitary corticotrophs in response to treatment with arginine vasopressin (AVP).
Anterior pituitary corticotrophs were prepared from adult female Sprague-Dawley rats and seeded into 48 well plates. The cells were cultured for 4 days prior to exposure to compound. Test compounds were prepared at […] in 100% DMSO. Cells were exposed to a dose response of test compounds for 20 minutes (10^−8 mol.L^−1-10^−5 mol.L^−1). The final concentration of DMSO in the assay was kept constant at 0.3%. The cells were then exposed to 3×10^−9 mol.L^−1 AVP for 120 minutes. Supernatants were harvested and stored at −20° C. ACTH levels were subsequently measured by ELISA following the manufacturer's instructions (Immunodiagnostic systems, UK (Cat No. DX-SDX018)). Each treatment was carried out in quadruplicate and a mean value obtained for the amount of ACTH released. The degree of antagonism was then calculated as a percentage of the amount of ACTH released by agonist alone after adjustment for basal levels of ACTH. A pIC50 was calculated by fitting a Sigmoidal dose response (variable slope) curve with a non-linear (fit) to the data using the software package GraphPad prism. […]

Where only a bound is given, the exact number is not on record here.

As to `CC(C)NC(=O)Cn1c(-c2cccc(Cl)c2)nc2ccc(N3CCCNCC3)cc2c1=O` [Example 1b, 2-[2-(3-Chlorophenyl)-4-oxo-6-perhydro-1,4-diazepin-1-yl-4H-quinazolin-3-yl]-N-isopropylacetamide], at human V3 receptor, the inhibition constant Ki was less than 10 nM.
At human V3 receptor, `COc1cccc(-c2nc3ccc(N4CCNCC4)cc3c(=O)n2CC(=O)NC(C)C)c1` [Example 2b, N-Isopropyl-2-[2-(3-methoxyphenyl)-4-oxo-6-piperazin-1-yl-4H-quinazolin-3-yl]acetamide] gave a Ki of 10 to 100 nM.
At human V3 receptor, `COc1cccc(-c2nc3ccc(N4CCCC(CN(C)C)C4)cc3c(=O)n2CC(=O)NC(C)C)c1` (centres unmarked) [Example 3c, 2-[6-(3-Dimethylaminomethyl-piperidin-1-yl)-2-(3-methoxyphenyl)-4-oxo-4H-quinazolin-3-yl]-N-isopropylacetamide] gave a Ki of 10 to 100 nM.
Same read-out and setting: under `COc1cccc(-c2nc3ccc(N4CCC[C@H](CN5CCCCC5)C4)cc3c(=O)n2CC(=O)NC(C)C)c1` [Example 3f, N-Isopropyl-2-[2-(3-methoxyphenyl)-4-oxo-6-((R)-3-piperidin-1-ylmethylpiperidin-1-yl)-4H-quinazolin-3-yl]acetamide] stands less than 10 nM.
For `COc1cccc(-c2nc3ccc(N4CCCN(C(C)C)CC4)cc3c(=O)n2CC(=O)NC(C)C)c1` [Example 4b, N-Isopropyl-2-[6-(4-isopropylperhydro-1,4-diazepin-1-yl)-2-(3-methoxyphenyl)-4-oxo-4H-quinazolin-3-yl]acetamide], the IC50 at V3 receptor fell in the range of 10 to 100 nM.
`COc1cccc(-c2nc3ccc(N4CCCN(CC(F)(F)F)CC4)cc3c(=O)n2CC(=O)NC(C)C)c1` [Example 4c, N-Isopropyl-2-{2-(3-methoxyphenyl)-4-oxo-6-[4-(2,2,2-trifluoroethyl)Perhydro-1,4-diazepin-1-yl]-4H-quinazolin-3-yl}acetamide] had an inhibitory constant (Ki) at human V3 receptor of 100 to 1000 nM.
`COCCN1CCCN(c2ccc3nc(-c4cccc(OC)c4)n(CC(=O)NC(C)C)c(=O)c3c2)CC1` [Example 4d, N-Isopropyl-2-[6-[4-(2-methoxyethyl)perhydro-1,4-diazepin-1-yl]-2-(3-methoxyphenyl)-4-oxo-4H-quinazolin-3-yl]acetamide]: the inhibition constant Ki at human V3 receptor was less than 10 nM.
`CC(C)NC(=O)Cn1c(-c2ccc(F)c(Cl)c2)nc2ccc(N3CCCN(CC(C)(C)C)CC3)cc2c1=O` [Example 5Ac, 2-{2-(3-Chloro-4-fluorophenyl)-6-[4-(2,2-dimethylpropyl)perhydro-1,4-diazepin-1-yl]-4-oxo-4H-quinazolin-3-yl}-N-isopropylacetamide] showed an inhibitory constant (Ki) at human V3 receptor of less than 10 nM.
The molecule `CC(C)NC(=O)Cn1c(-c2ccc(F)c(Cl)c2)nc2ccc(N3CCN(C)CC(C)(C)C3)cc2c1=O` [Example 5s, 2-[2-(3-Chloro-4-fluorophenyl)-4-oxo-6-(4,6,6-trimethylperhydro-1,4-diazepin-1-yl)-4H-quinazolin-3-yl]-N-isopropylacetamide] showed a Ki on human V3 receptor of less than 10 nM.
The molecule `CC(C)NC(=O)Cn1c(-c2cc(Cl)cc(OC(F)(F)F)c2)nc2ccc(N3CCCN(C(C)C)CC3)cc2c1=O` [Example 6w, 2-[2-(3-Chloro-5-trifluoromethoxyphenyl)-6-(4-isopropylperhydro-1,4-diazepin-1-yl)-4-oxo-4H-quinazolin-3-yl]-N-isopropylacetamide] had a Ki at human V3 receptor of less than 10 nM.
As to `CC(C)(C)NC(=O)Cn1c(C2CCCC2)nc2ccc(N3CCCNCC3)cc2c1=O` [Example 7a], the Ki at human V3 receptor is 10 to 100 nM.
Still for that read-out and setting: under `COCC(C)NC(=O)Cn1c(-c2ccc(F)c(OC)c2)nc2ccc(N3CCN4CCC3CC4)cc2c1=O` (centres unmarked) [Example 9Ah, 2-[6-(1,4-Diazabicyclo[3.2.2]non-4-yl)-2-(4-fluoro-3-methoxyphenyl)-4-oxo-4H-quinazolin-3-yl]-N-(2-methoxy-1-methylethyl)acetamide] stands 10 to 100 nM.
The same measure, in the same setting: for `CCN1CCCN(c2ccc3nc(-c4ccc(F)c(OC)c4)n(CC(=O)NC(C)(C)C(F)(F)F)c(=O)c3c2)CC1` [Example 9h, 2-[6-(4-Ethylperhydro-1,4-diazepin-1-yl)-2-(4-fluoro-3-methoxyphenyl)-4-oxo-4H-quinazolin-3-yl]-N-(2,212-trifluoro-1,1-dimethylethyl)acetamide] the value was less than 10 nM; for `CC(C)N1CCCN(c2ccc3nc(-c4cccc(Cl)c4)n(CC(=O)N(C)C(C)C)c(=O)c3c2)CC1` [Example 9u, 2-[2-(3-Chlorophenyl)-6-(4-isopropylperhydro-1,4-diazepin-1-yl)-4-oxo-4H-quinazolin-3-yl]-N-isopropyl-N-methylacetamide], 10 to 100 nM.
